# Assay results from patent US8519163B2, “Anti-tumor activity of AECHL-1, novel triterpenoid isolated from Ailanthus excelsa in vitro and in vivo” (National Centre for Cell Science, priority 2008, dated 2013).
# Columns and labels:
# [1] = system: B16F10 melanoma cells; test: In vivo allograft tumor model; set-up: species or system C57B1/6 mice
# Procedure: (§1) The data reported for tumor volumes are expressed as mean±SEM. Statistical differences were determined by ANOVA and post test applied was Tukey-Kramer multiple comparison Test. For Tumor to body weight ratio post test applied was Dunnett multiple comparisons test.
# [2] = system: p21; test: Western blot of tumor homogenates of C57B1/6 mice; assay type: in vivo, mouse; conditions: tumor of C57 mice, 100 μg
# Procedure: (§2) Prior to immunoblot analysis, tumor segments stored at −80° C. were thawed, washed, minced and homogenized in lysis buffer (120 mM NaCl, 1.0% Triton X 100, 20 mM Tris-HCl, pH 7.5, 10% glycerol, 2 mM EDTA, Protease inhibitor cocktail, Roche) using a Polytron homogenization device. Lysates were incubated at 4° C. for 30 min and centrifuged at 14000 r.p.m. in an Eppendorf micro centrifuge for 15 min. Proteins were isolated in solublised form. Protein concentrations were measured by Bradford assay (Bio-Rad protein assay kit) and stored at −80° C. For immunobloting, 60 μg of total protein from the tumor lysates were used Proteins were resolved in a 10% SDS-polyacrylamide gel, transferred to the immobilon-P […] membrane and blocked with 5% (wt/v) non fat dry milk powder (Sigma) in TBST buffer (10 mM Tris pH 7.6, 150 mM NaCl and 0.1% Tween-20) for three hours at room temperature and then incubated with primary antibodies p53, pp53, p21, Cyclin D1, CDK4 and c-Myc in TBST for 3 h and with actin for 1 hour at room temperature. The membrane was incubated further with the secondary antibody HRP-conjugated (BD Bioscience) at 1:10000 dilution for 1 h at room temperature. Following each antibody incubation, the membrane was washed thoroughly with TBST buffer 3 times. The protein bands were visualized using the enhanced chemiluminescence substrate reaction (Pierce) according to the manufacturer's instructions using X-OMAT AR5 film (Kodak)
# [3] = system: pp53; test: Western blot of tumor homogenates of C57B1/6 mice; assay type: in vivo, mouse; conditions: tumor of C57 mice, 100 μg
# Procedure: as §2
# [4] = system: p53; test: Western blot of tumor homogenates of C57B1/6 mice; assay type: in vivo, mouse; conditions: tumor of C57 mice, 100 μg, compared with control
# Procedure: as §2
# [5] = system: MCF-7 cells; test: Cell cycle analysis by flow cytometry; assay type: cell-based, human; conditions: 24 h
# Procedure: The cell cycle analysis of MCF-7, B16F10 MDA-MB-231 and PC3 cells was done by flow cytometry. […] Cells were harvested with trypsin (0.05%), 0.02% EDTA, 0.05% glucose and a single-cell suspension was prepared. Cells were washed and were pelleted by centrifugation (1000×g for 2 min) and fixed in 70% ethanol while vortexing and stored at 4° C. for 1 hour. Fixed cells were pelleted by centrifugation, to remove ethanol and washed with PBS. Cells were re-suspended in PBS containing 50 μg/ml propidium iodide, 0.1 g/L RNase and 1% BSA, incubated for 30 min at 37° C. in the dark, and analyzed with flow cytometry (FACS Vantage-BD Sciences, USA) equipped with an argon laser at 488 nm. The data was analyzed using Cell Quest software for determining the percent population in different phases of cell cycle.
# [6] = system: cellular microtubule network; test: Immunocytochemistry, microtubule network in MCF-7 cells; assay type: cell-based, human; conditions: paclitaxel 1-20 μM, AECHL-1 2-40 μM, 24 h, confocal microscopy
# Procedure: Immunocytochemistry was performed as described previously. […] Cells were incubated with primary anti-p53 antibodies (1:100; Abcam) and anti-α-tubulin antibodies (1:10000; Sigma chemical Co.) for 1 hour at room temperature. After washing with PBS, cells were incubated with CY2-conjugated secondary antibodies (1:200; Chemicon, Germany) and Alexa-conjugated secondary antibodies (1:10000; Sigma, St. Louis, Mo.) for 45 minutes and nuclear staining was done with DAPI. Images were captured under confocal microscope.
# The tumor suppressor p53 plays a critical role in preventing human cancer formation. It translocates into the nucleus and works as a transcription factor by upregulating cell cycle regulatory proteins and induces cell cycle arrest and/or programmed cell death (apoptosis) (11). […] After 24 h of incubation, the p53 translocation in the nucleus (green fluorescence) and microtubule network (red fluorescence) was visualized by confocal microscopy.
# [7] = system: MCF-7; test: In vivo xenograft tumor model; set-up: species or system athymic nude mice
# Procedure: as §1
smiles,measurement,setting,value
"N.N.[Cl][Pt][Cl] [Cisplatin, reference compound]",tumor size reduced by,"[1]; B16F10 allograft, 100 μg intra-tumor for 12 days, day 18",93.13±0.539%
same,tumor volume on day 24,"[1]; B16F10 allograft, 100 μg, day 24",decreased
same,histological examination of tumor tissue,"[1]; C57 mice, 100 μg",significant increase in necrotic nuclei with decreased tumor cell density
same,expression of p21,[2],increased p21 expression
same,phosphorylation of p53 (pp53),[3],did not show any change
same,p53 protein expression,[4],increasing expression
"CC(=O)O[C@H]1C(=O)[C@@]2(C)[C@H]([C@H](OC(=O)c3ccccc3)[C@]3(O)C[C@H](OC(=O)[C@H](O)[C@@H](NC(=O)c4ccccc4)c4ccccc4)C(C)=C1C3(C)C)[C@]1(OC(C)=O)CO[C@@H]1C[C@@H]2O [Paclitaxel, reference compound]",Phase of cell cycle (% of cells) G2/M,"[5]; MCF-7, 1 μM",72.55%
same,Phase of cell cycle (% of cells) S,"[5]; MCF-7, 1 μM",18.65%
same,Phase of cell cycle (% of cells) Sub G0,"[5]; MCF-7, 1 μM",3.45%
same,Phase of cell cycle (% of cells) G1,"[5]; MCF-7, 2 μM",7.41%
same,Phase of cell cycle (% of cells) G2/M,"[5]; MCF-7, 2 μM",63.71%
same,Phase of cell cycle (% of cells) S,"[5]; MCF-7, 2 μM",22.89%
same,Phase of cell cycle (% of cells) Sub G0,"[5]; MCF-7, 2 μM",5.21%
same,Phase of cell cycle (% of cells) G2/M,"[5]; MCF-7, 5 μM",72.86%
same,Phase of cell cycle (% of cells) S,"[5]; MCF-7, 5 μM",18.35%
same,Phase of cell cycle (% of cells) Sub G0,"[5]; MCF-7, 5 μM",3.98%
same,Phase of cell cycle (% of cells) G2/M,"[5]; MCF-7, 10 μM",69.36%
same,Phase of cell cycle (% of cells) S,"[5]; MCF-7, 10 μM",18.96%
same,Phase of cell cycle (% of cells) Sub G0,"[5]; MCF-7, 10 μM",3.47%
same,effect on microtubule network,[6],microtubule polymerization with an increase in the density of cellular microtubules
same,tumor size reduced by,"[7]; MCF-7 xenograft, 20 μg/0.05 ml intra-tumor for 10 days",14.19±0.32%
same,histological examination of tumor tissue,"[7]; nude mice, 20 μg",lowered the tumor cell density
